From ChEMBL document CHEMBL3097994, “Simplified captopril analogues as NDM-1 inhibitors” (Bioorg Med Chem Lett, 2014)
pIC50: −log10 of the molar value. Calls of active or inactive are those of the source. No cut-off for these calls is given here.

experiment: Inhibition of NDM-1 (unknown origin) using imipenem as substrate at 1 mM by spectrophotometric analysis

Row | SMILES | inhibition
1 | COC(=O)C(C)CS (stereo not drawn) | inactive
2 | CC(CS)C(=O)N1CCOCC1 (stereo not drawn) | inactive
3 | CNc1ccccc1NC(=O)C(C)CS (stereo not drawn) | inactive

experiment: Inhibition of NDM-1 (unknown origin) using imipenem as substrate by spectrophotometric analysis

Row | SMILES | pIC50
4 | CC(CO)CS (stereo not drawn) | 4.82
5 | CSCCNC(=O)[C@H](C)CS | 4.89
6 | COc1ccc(CONC(=O)C(C)CS)cc1 (stereo not drawn) | < 3.70
7 | C[C@H](CS)C(=O)O | 4.09
8 | CON(C)C(=O)[C@@H](C)CS | 4.32
9 | CC(CS)C(=O)O (racemic) | 4.25
10 | CC(CS)C(=O)NCc1ccc(F)cc1 (stereo not drawn) | < 3.70
11 | C[C@H](CS)C(=O)NCc1ccc(O)cc1 | < 3.70
12 | CC(CS)C(=O)Nc1ccccc1 (stereo not drawn) | 3.87
13 | C[C@@H](CS)C(=O)NCc1ccccc1 | 5.82
14 | CON(C)C(=O)[C@H](C)CS | 4.70
15 | C[C@@H](CS)C(=O)O | 4.28
16 | CC(CS)C(=O)Nc1ncc(Br)s1 (stereo not drawn) | 4.28
17 | OCC(S)CS (stereo not drawn) [DIMERCAPROL] | 4.98
18 | C[C@H](CS)C(=O)NCc1ccccc1O | 5.30
19 | CONC(=O)[C@@H](C)CS | 4.04
20 | C[C@H](CS)C(=O)NCCS(C)(=O)=O | 3.92
21 | CONC(=O)[C@H](C)CS | 4.26
22 | Cc1coc(NC(=O)C(C)CS)n1 (stereo not drawn) | 4.68
23 | C[C@H](CS)C(=O)NCc1ccccc1 | 5.30
24 | CC(CS)C(=O)NCCc1cccs1 (stereo not drawn) | < 3.70
25 | CC(CS)C(=O)Nc1ncc[nH]1 (stereo not drawn) | < 3.70
26 | CC(CS)C(=O)NCc1ccco1 (stereo not drawn) | < 3.70
27 | Cc1ccccc1CNC(=O)[C@H](C)CS | < 3.70
28 | CCCCNC(=O)C(C)CS (stereo not drawn) | 4.70
29 | CC(CS)C(=O)NCCc1ccccc1 (stereo not drawn) | < 3.70
30 | CC(CS)C(=O)Nc1nccs1 (stereo not drawn) | < 3.70
31 | CC(CS)C(=O)Nc1cccc(F)c1 (stereo not drawn) | < 3.70
32 | CC(CS)C(=O)Nc1ccc(F)cc1 (stereo not drawn) | < 3.70

experiment: Inhibition of NDM-1 (unknown origin)

Row | SMILES | pIC50
33 | C[C@H](CS)C(=O)N1CCC[C@H]1C(=O)O [CAPTOPRIL] | 4.41
